Laboratory results taken from patent US11693006B2, “Blood profiling with protease inhibitors” (Sangui Bio Pty. Ltd, priority 2016, dated 2023).
Numbered stars: 1 amine (or outer) side, 2 acyl side, 3 side chain; on linkers, the order of the positions; unused ones are H or OH. Square brackets hold non-standard residues; d marks the D form. Peptide text beside a SMILES is read from it. * marks the point of attachment. ξ: configuration not given here. Sta = CC(C)C[C@H](N)[C@@H](O)CC(=O)O; Isovaleryl = CC(C)CC(=O)*; ξR = N=C(N)NCCCC(N)C(=O)O; ξF = NC(Cc1ccccc1)C(=O)O; CO = O=C([*:1])[*:2]

How the values were obtained:
Format in all cases: cell-based, human
[1] = system: red blood cells from healthy individuals; assay: Cytokine release from red blood cells of healthy individuals incubated with protease inhibitors (27-plex and 21-plex Bio-Plex); settings: for effect on cytokine release from healthy red blood cells individually: individual inhibitors at Table 5 concentrations
Method: Blood samples from healthy volunteers were used to evaluate the effect of specific protease inhibitors on proteins from red blood cells. Whole blood was collected from healthy volunteers by venepuncture (n≥3) directly into EDTA vacutainers (k2EDTA vacutainers, BD Biosciences). The fractions of blood were collected and processed at room temperature within 4 hours of collection. For multiplex analysis (BioPlex analysis) the samples were stored at −80° C.
The red blood cells were isolated using dextran sedimentation as follows. Whole blood was centrifuged (1500 g, 10 minutes) and the upper plasma layer was discarded. The remaining cell pellet was resuspended in an equal volume of sodium chloride (0.15 M). Dextran (6% w/v in 0.15 M sodium chloride) was then added to this cellular suspension at a 1:4 ratio (dextran:cell suspension). The solution was left at room temperature for 30 minutes for red blood cell sedimentation to the bottom of the tube. The upper white blood cell rich layer was then discarded and the lower red blood cell fraction isolated. The red blood cell fraction was washed once in phosphate buffered saline (PBS, 500 g, 5 minutes) and the remaining red blood cell pellet was counted (Coulter Act Diff, Beckman Coulter). The red blood cells were then diluted to 400 million cells/mL in PBS and were incubated at 37° C. and 5% CO2 for 24 hours. Some samples were also incubated with the protease inhibitors indicated in Table 5 during the PBS incubation.
(§1) After incubation, the resulting conditioned PBS was isolated by centrifugation (500 g, 5 minutes) and then stored at −80° C. The conditioned PBS samples were then analysed on the multiplex cytokine assays. Two multiplex assays were utilised. The first was a 27-plex human cytokine panel that assays for FGF basic, Eotaxin, G-CSF, GM-CSF, IFN-γ, IL-1β, IL-1ra, IL-2, IL-4, IL-5, IL-6, IL-7, IL-8, IL-9, IL-10, IL-12(p70), IL-13, IL-15, IL-17, IP-10, MCP-1, MIP-1α, MIP-1β, PDGF-BB, RANTES, TNF-α, and VEGF, and the second was a 21-plex human cytokine panel that assays for IL-1α, IL-2Ra, IL-3, IL-12, IL-16, IL-18, CTACK, GRO-α, HGF, IFN-α2, LIF, MCP-3, M-CSF, MIF, MIG, β-NGF, SCF, SCGF-β, SDF-1α, TNF-β, TRAIL (Bio-Plex Pro 27-plex and 21-plex, Bio-Rad). The assays were performed according to manufacturer's instructions using an automated magnetic wash station (BioPlex Pro II, Bio-Rad) for the washing steps. The assays were run on the Luminex® 200™ system (Bio-Rad) and fluorescent values were collected. The calibration curve for each cytokine was analysed with 5 parametric logistic curve regression using BioPlex manager software (ver. 5.0, Bio-Rad, USA).
The fold change was determined for proteins in red blood cell-conditioned PBS at 400 million cells/mL following incubation at 37° C. for 24 hours with protease inhibitor cocktail or individual protease inhibitors from healthy participants. […] Significant differences (p<0.05) were determined using Student T-tests.
To determine the effect of a combination of protease inhibitors on the release of proteins from red blood cells, a protein profile was obtained from healthy red blood cells incubated with protease inhibitor cocktails. […] Healthy red blood cells were incubated with A8127s and the cOmplete protease inhibitor cocktail (Roche).

[2] = system: red blood cells from individuals having colorectal cancer; assay: Cytokine release from red blood cells of individuals having colorectal cancer incubated with protease inhibitors (27-plex); settings: colorectal cancer red blood cells vs no protease inhibitors
Method: Whole blood was collected from volunteers with by venepuncture directly into EDTA vacutainers (k2EDTA vacutainers, BD Biosciences). The fractions of blood were collected and processed at room temperature within 4 hours of collection. For multiplex analysis (BioPlex analysis) the samples were stored at −80° C. prior to analysis. The red blood cells were isolated using dextran sedimentation as follows. Whole blood was centrifuged (1500 g, 10 minutes) and the upper plasma layer was discarded. The remaining cell pellet was resuspended in an equal volume of sodium chloride (0.15 M). Dextran (6% w/v in 0.15 M sodium chloride) was then added to this cellular suspension at a 1:4 ratio (dextran:cell suspension). The solution was left at room temperature for 30 minutes for red blood cell sedimentation to the bottom of the tube. The upper white blood cell rich layer was discarded and the lower red blood cell fraction was isolated. The red blood cell fraction was washed once in phosphate buffered saline (PBS, 500 g, 5 minutes) and the remaining red blood cell pellet was counted (Coulter Act Diff, Beckman Coulter). The red blood cells were then diluted to 400 million cells/mL in PBS and incubated at 37° C. and 5% CO2 for 24 hours. Some samples were also incubated with the individual protease inhibitors in Table 5, a commercial protease inhibitor cocktail (cOmplete, Roche), or the A8127s protease inhibitor cocktail during the PBS incubation. The A8127s protease inhibitor cocktail comprised antipain-dihydrochloride (50 μg/mL); bestatin (40 μg/mL); E-64 (10 μg/mL); leupeptin (5 μg/mL); pepstatin (0.7 μg/mL); phosphoramidon (330 μg/mL); Pefabloc SC (1 mg/mL); EDTA-Na2 (0.5 mg/mL); and aprotinin (2 μg/mL).
as §1, with “minutes). The samples were” for “minutes) and then”, “on” for “on the multiplex cytokine assays. Two multiplex assays were utilised. The first was”, “VEGF” for “VEGF, and the second was a 21-plex human cytokine panel that assays for IL-1α, IL-2Ra, IL-3, IL-12, IL-16, IL-18, CTACK, GRO-α, HGF, IFN-α2, LIF, MCP-3, M-CSF, MIF, MIG, β-NGF, SCF, SCGF-β, SDF-1α, TNF-β, TRAIL”, “27-plex,” for “27-plex and 21-plex,”, “assay was” for “assays were”
Significant differences (p<0.05) were determined using Student T-tests. […]

red blood cells = assay: Protein profile in red blood cell lysates using cationic salt (21-plex); settings: PBS containing 100 mM LiCl vs PBS
Method: Red blood cells were isolated using dextran sedimentation as follows. Whole blood was centrifuged (1500 g, 10 minutes) and the upper plasma layer was discarded. The remaining cell pellet was resuspended in an equal volume of sodium chloride (0.15 M). Dextran (6% w/v in 0.15 M sodium chloride) was then added to this cellular suspension at a 1:4 ratio (dextran:cell suspension). This solution was left at room temperature for 30 minutes for red blood cell sedimentation to the bottom of the tube. After this time the upper white blood cell rich layer and the lower red blood cell fraction were separated and the white blood cells discarded. The lower red blood cell fraction was washed twice in phosphate buffered saline (PBS, 500 g, 5 minutes). The supernatant was discarded, and the red blood cell pellet resuspended in either PBS or PBS containing 100 mM LiCl.
The red blood cells were subjected to 3 freeze-thaw cycles to ensure complete cellular lysis. […] The red blood cell lysates were analysed on a 21-plex human cytokine panel that assays for IL-1α, IL-2Ra, IL-3, IL-12, IL-16, IL-18, CTACK, GRO-α, HGF, IFN-α2, LIF, MCP-3, M-CSF, MIF, MIG, β-NGF, SCF, SCGF-β, SDF-1α, TNF-β, TRAIL (Bio-Plex Pro 27-plex and 21-plex, Bio-Rad). […] The calibration curve for each cytokine was analysed with 5 parametric logistic curve regression using BioPlex manager software (ver. 5.0, Bio-Rad, USA).

[3] = healthy red blood cells, in words

| Molecule | effect on cytokine release from healthy red blood cells individually [1] | further results |
| --- | --- | --- |
| CC(C)[C@H](NC(=O)[C@H](CCCN=C(N)N)NC(=O)NC(Cc1ccccc1)C(=O)O)C(=O)NC(C=O)CCCN=C(N)N.Cl.Cl (stereo partly drawn) [Sample ID 3, Antipain-dihydrochloride] ({ξF-CO}-Arg-Val-[ξR]-aldehyde) | significant effect | concentration of IL-1β, IL-8, TNF-α, MIP-1α, G-CSF and IL-6 [2]: decreasing; concentration of released IFN-γ, IL-12(p70), IL-15, IL-17, IL-13, IL-7, IP-10, PDGF-bb and IL-2 [2]: increased |
| CC(C)C[C@H](NC(=O)[C@@H](O)[C@H](N)Cc1ccccc1)C(=O)O [Sample ID 4, Bestatin] | significant effect | concentration of HGF following red blood cell incubation [1, 3]: dramatically increased; concentration of released IFN-a2, IL-18, MIF, TRAIL, HGF, and IL12-p40 [1, 3]: alters |
| CC(C)C[C@H](NC(=O)[C@H]1O[C@@H]1C(=O)O)C(=O)NCCCCN=C(N)N [Sample ID 5, E-64] | significant effect |  |
| CC(=O)N[C@@H](CC(C)C)C(=O)N[C@@H](CC(C)C)C(=O)N[C@H](C=O)CCCNC(=N)N [Sample ID 6, Leupeptin] | significant effect |  |
| CC(C)CC(=O)N[C@H](C(=O)N[C@H](C(=O)N[C@@H](CC(C)C)[C@@H](O)CC(=O)N[C@@H](C)C(=O)N[C@@H](CC(C)C)[C@@H](O)CC(=O)O)C(C)C)C(C)C [Sample ID 7, Pepstatin] (Isovaleryl-VV[Sta]A[Sta]-OH) | significant effect | concentration of HGF following red blood cell incubation [1, 3]: significantly decreased; effect on concentration of IFN-a2, MIF, and HGF [1, 3]: opposite effect of bestatin |
| CC(C)C[C@H](NP(=O)(O)O[C@@H]1O[C@@H](C)[C@H](O)[C@@H](O)[C@H]1O)C(=O)N[C@@H](Cc1c[nH]c2ccccc12)C(=O)O [Sample ID 8, Phosphoramidon] | significant effect |  |
| Cl.NCCc1ccc(S(=O)(=O)F)cc1 [Sample ID 9, Pefabloc SC] | significant effect | concentration of IL-1β, IL-8, IL-9, TNF-α, IL-1ra, MCP-1, MIP-1α, G-CSF and IL-6 [2]: decreasing; released concentration of IL-13 and IL-7 [2]: increased |
| O=C([O-])CN(CCN(CC(=O)[O-])CC(=O)O)CC(=O)O.[Na+].[Na+] [Sample ID 10, EDTA-Na2] | significant effect |  |
| [Cl-].[Li+] [lithium chloride] |  | level of several of the proteins in the assay (21-plex human cytokine panel) (red blood cells): increased and/or enhanced |
| Aprotinin [Sample ID 11] | significant effect |  |
